Source: patent US8580789B2, “Treating glaucoma” (The Cleveland Clinic Foundation, priority 2007, dated 2013)
Several values for one entry are separate records, joined by “and”; a condition that tells them apart may be missing. Identical values can stand only once.

Columns and labels:
Parameters in all cases: species or system porcine
[1] = tested on: optic nerve/lamina cribrosa complex; experiment: Photographic circumferential strain analysis during IOP elevation, ON/LC; conditions: Group 3; GTA on PS only; IOP 2-4 to 80 mmHg
Method: (§1) Eighteen porcine globes were divided evenly into 3 groups. The optic nerves were transected to expose the ON/LC, and each globe was infused through an in-line pressure transducer for direct IOP control. Surface wave velocity, a non-destructive measure of tissue stiffness, was measured across the ON/LC and PS before and after collagen crosslinking at IOP of 10 and 30 mmHg (groups 1 and 2) and at each globe's preinflation IOP and 80 mmHg (group 3). In group 3, papillary strain was measured by analyzing the displacement of fiducial marks immediately adjacent to the ON/LC using digital photography.
(§2) In group 3 (n=6), the same procedure described for group 2 was implemented with the following exceptions. First, four fiducial ink marks were placed in each quadrant of the PS immediately adjacent to the ON/LC prior to measurement. High-resolution (7.1 megapixel) digital photos were then taken at both low and high IOP before and after crosslinking. The vertical and horizontal distances between the outer extent of the ink marks and the outer margins of the optic nerve were measured in Photoshop (Adobe Systems, Inc., San Jose, Calif.), and the centripetal displacement of the fiducial marks (Δ1) was divided by the initial distance between the marks (10) to yield dimensionless indicators of circumferential strain (ζ=Δ1/10) in the peripapillary sclera and ON/LC, respectively. Second, measurements were acquired at each eye's pre-inflation pressure (between 2 to 4 mmHg) and at 80 mmHg to ensure that measurable changes in SWV and ON/LC geometry would be generated in at least one experimental group. As in group 2, the peripapillary sclera was selectively exposed to GTA and post-crosslinking measurements were repeated at low and high IOP. Same-eye statistical comparisons of wave velocity and strain were performed with paired student's t-tests.

[2] = tested on: peripapillary sclera; experiment: Photographic circumferential strain analysis during IOP elevation, peripapillary sclera; conditions: Group 3; GTA on PS only; IOP 2-4 to 80 mmHg
Method: as §1, §2

[3] = tested on: peripapillary sclera; experiment: Estimate of PS ring elastic (secant) modulus by LaPlace equation and measured strain
Source text: By a similar analysis of strain across the ON in the same eyes, the pressure-induced change in ON diameter was 10.5±3.9% horizontally and 9.4±6.5% vertically prior to crosslinking. The combined vertical and horizontal strain averaged 7.3±4.4% across the PS ring and 10.2±5.4% across the ON/LC region alone (p=0.22). […] The native stiffness value compares favorably to the porcine scleral modulus of 500 kPa measured by Pierscionek B K, et al., Br J Opthalmol.; 91(6):801-803 (2007) particularly since their measurement was obtained at a lower peak pressure (50 mmHg) and was obtained from the entire sclera, which incorporates the thinner and effectively more elastic sclera anterior to the posterior pole (Olsen T W, et al., Invest Opthalmol Vis Sci; 43(8):2529-2532 (2002)).
The elastic modulus (E) of peripapillary sclera (PS) in Group 3 was estimated before and after crosslinking. First, measured PS strain was […] the circumferential stress as derived from the LaPlace equation, σ=IOP×R/2t, where σ indicates the circumferential stress as a function of IOP, scleral radius of curvature (R), and sclera thickness (t). […]

Compound: O=CCCCC=O [GTA, glutaraldehyde]
- Average Circumferential Strain of ON/LC with IOP elevation, Post-Crosslinking Mean ± SD [1]: 0.0 ± 0.0%
- Horizontal Circumferential Strain of ON/LC with IOP elevation, Post-Crosslinking Mean ± SD [1]: 0.0 ± 0.0%
- Vertical Circumferential Strain of ON/LC with IOP elevation, Post-Crosslinking Mean ± SD [1]: 0.0 ± 0.0%
- Average Circumferential Strain of PS with IOP elevation, Post-Crosslinking Mean ± SD [2]: 0.38% and 0.4 ± 1.3%
- Horizontal Circumferential Strain of PS with IOP elevation, Post-Crosslinking Mean ± SD [2]: 0.0 ± 0.0%
- Vertical Circumferential Strain of PS with IOP elevation, Post-Crosslinking Mean ± SD [2]: 0.7 ± 1.9%
- PS ring elastic modulus after crosslinking (estimate) ([3]; Group 3, GTA, stress increment 4 to 80 mmHg divided by crosslinked strain): 16.1 MPa
- Increase in stiffness (elastic modulus) of peripapillary sclera with crosslinking ([3]; glutaraldehyde-mediated crosslinking, estimate): ~20 fold
